Several values for one entry are separate records, joined by “and”; a condition that tells them apart may be missing. Equal entries are not always repeated.
T1: plasma membrane H^+-ATPase hexamer, aggregated (large MAS, Peak 1) (Kluyveromyces lactis, UniProt P49380)
T1 construct: gene PMA1; Superose 6 Peak 1, aggregated hexamers; monomer ~100 kDa; no tag
T1 sequence (P49380 1-899): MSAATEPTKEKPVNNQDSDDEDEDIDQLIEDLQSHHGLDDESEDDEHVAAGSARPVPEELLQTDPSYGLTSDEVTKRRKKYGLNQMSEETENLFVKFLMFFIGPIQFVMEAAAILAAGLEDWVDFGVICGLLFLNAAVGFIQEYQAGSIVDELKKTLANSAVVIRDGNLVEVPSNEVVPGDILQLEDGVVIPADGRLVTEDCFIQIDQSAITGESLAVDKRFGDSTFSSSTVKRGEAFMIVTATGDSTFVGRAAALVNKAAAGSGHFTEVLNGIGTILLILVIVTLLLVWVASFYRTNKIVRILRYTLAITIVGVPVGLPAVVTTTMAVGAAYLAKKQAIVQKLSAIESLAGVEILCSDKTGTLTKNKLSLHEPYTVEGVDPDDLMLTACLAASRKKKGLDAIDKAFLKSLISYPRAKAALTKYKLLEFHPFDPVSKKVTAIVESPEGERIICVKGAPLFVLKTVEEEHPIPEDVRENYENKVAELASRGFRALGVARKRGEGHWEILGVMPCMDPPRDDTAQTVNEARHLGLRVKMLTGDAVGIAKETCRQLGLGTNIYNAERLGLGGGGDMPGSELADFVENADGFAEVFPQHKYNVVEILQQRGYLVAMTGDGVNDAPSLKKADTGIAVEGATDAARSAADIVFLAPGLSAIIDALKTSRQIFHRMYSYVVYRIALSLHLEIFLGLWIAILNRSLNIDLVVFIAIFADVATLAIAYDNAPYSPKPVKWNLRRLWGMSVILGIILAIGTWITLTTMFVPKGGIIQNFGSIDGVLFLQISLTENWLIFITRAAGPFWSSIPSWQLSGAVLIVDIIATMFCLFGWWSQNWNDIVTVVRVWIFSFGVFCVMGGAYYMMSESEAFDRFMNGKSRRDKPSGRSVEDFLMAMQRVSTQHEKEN

T2: plasma membrane H^+-ATPase hexamer, free (small MAS, Peak 2) (Kluyveromyces lactis, UniProt P49380)
T2 construct: gene PMA1; Superose 6 Peak 2, mainly free hexamers with minor monomer, dimer, tetramer; monomer ~100 kDa; no tag
T2 sequence (P49380 1-899): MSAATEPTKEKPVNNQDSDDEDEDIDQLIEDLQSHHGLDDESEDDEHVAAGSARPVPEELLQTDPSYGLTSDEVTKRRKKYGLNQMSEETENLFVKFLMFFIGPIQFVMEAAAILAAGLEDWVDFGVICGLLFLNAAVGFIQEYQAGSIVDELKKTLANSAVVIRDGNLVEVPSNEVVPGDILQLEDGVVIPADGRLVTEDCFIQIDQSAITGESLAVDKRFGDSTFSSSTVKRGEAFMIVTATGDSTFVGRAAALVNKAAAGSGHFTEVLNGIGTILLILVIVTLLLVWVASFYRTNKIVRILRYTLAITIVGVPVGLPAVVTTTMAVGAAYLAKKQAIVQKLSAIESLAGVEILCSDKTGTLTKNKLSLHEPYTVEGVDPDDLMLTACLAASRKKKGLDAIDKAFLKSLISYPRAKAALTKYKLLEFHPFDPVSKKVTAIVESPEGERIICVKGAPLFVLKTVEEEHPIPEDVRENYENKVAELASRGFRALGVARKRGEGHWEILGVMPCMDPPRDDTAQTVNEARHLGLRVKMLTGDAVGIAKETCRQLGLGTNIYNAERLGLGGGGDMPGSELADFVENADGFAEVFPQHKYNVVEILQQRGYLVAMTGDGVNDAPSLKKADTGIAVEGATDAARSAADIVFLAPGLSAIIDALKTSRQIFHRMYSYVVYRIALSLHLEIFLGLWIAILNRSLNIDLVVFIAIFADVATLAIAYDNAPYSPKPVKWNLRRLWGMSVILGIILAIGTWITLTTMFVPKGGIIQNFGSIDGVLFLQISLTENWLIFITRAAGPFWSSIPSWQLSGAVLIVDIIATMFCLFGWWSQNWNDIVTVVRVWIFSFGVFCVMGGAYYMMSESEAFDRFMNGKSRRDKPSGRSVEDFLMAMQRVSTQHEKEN


What was measured:
[1] = biological target: T1, plasma membrane H^+-ATPase hexamer, aggregated (large MAS, Peak 1); assay: intrinsic Trp fluorescence quenching titration, Hill-type fit; format: binding
[2] = biological target: T2, plasma membrane H^+-ATPase hexamer, free (small MAS, Peak 2); assay: as above; format: binding
purified protein = substrate: Nc1ncnc2c1ncn2[C@@H]1O[C@H](COP(=O)(O)OP(=O)(O)OP(=O)(O)O)[C@@H](O)[C@H]1O; assay: purified protein; format: biochemical, Kluyveromyces lactis; conditions: 25 °C, cooperative
[3] = biological target: the molecule itself; assay: native gel or EMSA; BN-PAGE of SEC Peak 2 fractions (33-37); 4-15% gradient gel with 0.1 M trehalose; sample buffer 25 mM imidazole, 0.3 M trehalose, 0.25% DDM, 0.025% Coomassie blue, pH 7.0; 4 °C; silver stain
[4] = biological target: the molecule itself; assay: native gel or EMSA; BN-PAGE of SEC Peak 1 fractions (23-26); 4-15% gradient gel with 0.1 M trehalose; sample buffer 25 mM imidazole, 0.3 M trehalose, 0.25% DDM, 0.025% Coomassie blue, pH 7.0; 4 °C; silver stain

Kd [1]	Kd [2]	Molecule	other results
136 ± 7.8 µM	190 ± 13.9 µM	Nc1ncnc2c1ncn2[C@@H]1O[C@H](COP(=O)(O)OP(=O)(O)O)[C@@H](O)[C@H]1O [ADP]	
73.3 ± 5.8 µM	106 ± 12.6 µM	Nc1ncnc2c1ncn2[C@@H]1O[C@H](COP(=O)(O)OP(=O)(O)CP(=O)(O)O)[C@@H](O)[C@H]1O [AMP-PCP]	
		plasma membrane H^+-ATPase hexamer, aggregated (large MAS, Peak 1) (Kluyveromyces lactis NRRL Y-1140) (protein, Superose 6 Peak 1, aggregated hexamers; monomer ~100 kDa; no tag) MSAATEPTKEKPVNNQDSDDEDEDIDQLIEDLQSHHGLDDESEDDEHVAAGSARPVPEELLQTDPSYGLTSDEVTKRRKKYGLNQMSEETENLFVKFLMFFIGPIQFVMEAAAILAAGLEDWVDFGVICGLLFLNAAVGFIQEYQAGSIVDELKKTLANSAVVIRDGNLVEVPSNEVVPGDILQLEDGVVIPADGRLVTEDCFIQIDQSAITGESLAVDKRFGDSTFSSSTVKRGEAFMIVTATGDSTFVGRAAALVNKAAAGSGHFTEVLNGIGTILLILVIVTLLLVWVASFYRTNKIVRILRYTLAITIVGVPVGLPAVVTTTMAVGAAYLAKKQAIVQKLSAIESLAGVEILCSDKTGTLTKNKLSLHEPYTVEGVDPDDLMLTACLAASRKKKGLDAIDKAFLKSLISYPRAKAALTKYKLLEFHPFDPVSKKVTAIVESPEGERIICVKGAPLFVLKTVEEEHPIPEDVRENYENKVAELASRGFRALGVARKRGEGHWEILGVMPCMDPPRDDTAQTVNEARHLGLRVKMLTGDAVGIAKETCRQLGLGTNIYNAERLGLGGGGDMPGSELADFVENADGFAEVFPQHKYNVVEILQQRGYLVAMTGDGVNDAPSLKKADTGIAVEGATDAARSAADIVFLAPGLSAIIDALKTSRQIFHRMYSYVVYRIALSLHLEIFLGLWIAILNRSLNIDLVVFIAIFADVATLAIAYDNAPYSPKPVKWNLRRLWGMSVILGIILAIGTWITLTTMFVPKGGIIQNFGSIDGVLFLQISLTENWLIFITRAAGPFWSSIPSWQLSGAVLIVDIIATMFCLFGWWSQNWNDIVTVVRVWIFSFGVFCVMGGAYYMMSESEAFDRFMNGKSRRDKPSGRSVEDFLMAMQRVSTQHEKEN	K0.5 (purified protein; Hill n = 1.98 ± 0.21): 329 ± 19 µM
		plasma membrane H^+-ATPase hexamer, free (small MAS, Peak 2) (Kluyveromyces lactis NRRL Y-1140) (protein, Superose 6 Peak 2, mainly free hexamers with minor monomer, dimer, tetramer; monomer ~100 kDa; no tag) MSAATEPTKEKPVNNQDSDDEDEDIDQLIEDLQSHHGLDDESEDDEHVAAGSARPVPEELLQTDPSYGLTSDEVTKRRKKYGLNQMSEETENLFVKFLMFFIGPIQFVMEAAAILAAGLEDWVDFGVICGLLFLNAAVGFIQEYQAGSIVDELKKTLANSAVVIRDGNLVEVPSNEVVPGDILQLEDGVVIPADGRLVTEDCFIQIDQSAITGESLAVDKRFGDSTFSSSTVKRGEAFMIVTATGDSTFVGRAAALVNKAAAGSGHFTEVLNGIGTILLILVIVTLLLVWVASFYRTNKIVRILRYTLAITIVGVPVGLPAVVTTTMAVGAAYLAKKQAIVQKLSAIESLAGVEILCSDKTGTLTKNKLSLHEPYTVEGVDPDDLMLTACLAASRKKKGLDAIDKAFLKSLISYPRAKAALTKYKLLEFHPFDPVSKKVTAIVESPEGERIICVKGAPLFVLKTVEEEHPIPEDVRENYENKVAELASRGFRALGVARKRGEGHWEILGVMPCMDPPRDDTAQTVNEARHLGLRVKMLTGDAVGIAKETCRQLGLGTNIYNAERLGLGGGGDMPGSELADFVENADGFAEVFPQHKYNVVEILQQRGYLVAMTGDGVNDAPSLKKADTGIAVEGATDAARSAADIVFLAPGLSAIIDALKTSRQIFHRMYSYVVYRIALSLHLEIFLGLWIAILNRSLNIDLVVFIAIFADVATLAIAYDNAPYSPKPVKWNLRRLWGMSVILGIILAIGTWITLTTMFVPKGGIIQNFGSIDGVLFLQISLTENWLIFITRAAGPFWSSIPSWQLSGAVLIVDIIATMFCLFGWWSQNWNDIVTVVRVWIFSFGVFCVMGGAYYMMSESEAFDRFMNGKSRRDKPSGRSVEDFLMAMQRVSTQHEKEN	K0.5 (purified protein; Hill n = 1.82 ± 0.22): 364 ± 28 µM
		plasma membrane H^+-ATPase from Kluyveromyces lactis (enzyme, UniProt P49380 1-899, looked up, plasma membrane H^+-ATPase (Pma1) of Kluyveromyces lactis, endogenous enzyme; monomer band of ~100 kDa on SDS-PAGE; also called Pma1; H^+-ATPase hexamer; source: also in isolated plasma membranes treated with DDM) MSAATEPTKEKPVNNQDSDDEDEDIDQLIEDLQSHHGLDDESEDDEHVAAGSARPVPEELLQTDPSYGLTSDEVTKRRKKYGLNQMSEETENLFVKFLMFFIGPIQFVMEAAAILAAGLEDWVDFGVICGLLFLNAAVGFIQEYQAGSIVDELKKTLANSAVVIRDGNLVEVPSNEVVPGDILQLEDGVVIPADGRLVTEDCFIQIDQSAITGESLAVDKRFGDSTFSSSTVKRGEAFMIVTATGDSTFVGRAAALVNKAAAGSGHFTEVLNGIGTILLILVIVTLLLVWVASFYRTNKIVRILRYTLAITIVGVPVGLPAVVTTTMAVGAAYLAKKQAIVQKLSAIESLAGVEILCSDKTGTLTKNKLSLHEPYTVEGVDPDDLMLTACLAASRKKKGLDAIDKAFLKSLISYPRAKAALTKYKLLEFHPFDPVSKKVTAIVESPEGERIICVKGAPLFVLKTVEEEHPIPEDVRENYENKVAELASRGFRALGVARKRGEGHWEILGVMPCMDPPRDDTAQTVNEARHLGLRVKMLTGDAVGIAKETCRQLGLGTNIYNAERLGLGGGGDMPGSELADFVENADGFAEVFPQHKYNVVEILQQRGYLVAMTGDGVNDAPSLKKADTGIAVEGATDAARSAADIVFLAPGLSAIIDALKTSRQIFHRMYSYVVYRIALSLHLEIFLGLWIAILNRSLNIDLVVFIAIFADVATLAIAYDNAPYSPKPVKWNLRRLWGMSVILGIILAIGTWITLTTMFVPKGGIIQNFGSIDGVLFLQISLTENWLIFITRAAGPFWSSIPSWQLSGAVLIVDIIATMFCLFGWWSQNWNDIVTVVRVWIFSFGVFCVMGGAYYMMSESEAFDRFMNGKSRRDKPSGRSVEDFLMAMQRVSTQHEKEN	stoichiometry N [3]: 2 and 4; stoichiometry N [4]: 6

— article PMC6429222, “The Oligomeric State of the Plasma Membrane H^+-ATPase from Kluyveromyces lactis” (Molecules, 2019)
